Literature values as cited in patent US20180116967A1, “EXTENDED RELEASE TABLET OF CYCLOBENZAPRINE” (SYNMOSA BIOPHARMA CORPORATION, priority 2015, published 2018).

System: plasma protein

drug coupled to plasma protein: About 93%
Structure (SMILES): CN(C)CCC=C1c2ccccc2C=Cc2ccccc21 [cyclobenzaprine, 3-(5H-dibenzo[a,d]cyclohepten-5-ylidene)-N,N-dimethyl-1-propanamine]
